Measured values from ChEMBL document CHEMBL3885881, “DrugMatrix”.

Species: Rattus norvegicus
Assay: DrugMatrix - Regimen: Daily Repeat
Format: toxicity, organism-based, Sprague-Dawley
Design: regimen Daily Repeat, gender Male, age 6-8 weeks
Conditions: in vivo, po, route oral GAVAGE, […]; for ABSOLUTE BASOPHIL / ABSOLUTE EOSINOPHIL / ABSOLUTE LYMPHOCYTE / ABSOLUTE MONOCYTE / ABSOLUTE SEGMENTED NEUTROPHIL / BASOPHIL / EOSINOPHIL / ERYTHROCYTE COUNT / HEMATOCRIT / HEMOGLOBIN / LEUKOCYTE COUNT / LYMPHOCYTE / MEAN CORPUSCULAR HEMOGLOBIN / MEAN CORPUSCULAR HEMOGLOBIN CONCENTRATION / MEAN CORPUSCULAR VOLUME / MONOCYTE / NEUTROPHIL / NUCLEATED RED BLOOD CELLS / PLATELET COUNT: tissue Blood; for ALANINE AMINOTRANSFERASE / ALBUMIN / ALKALINE PHOSPHATASE / ASPARTATE AMINOTRANSFERASE / BLOOD UREA NITROGEN / CARBON DIOXIDE / CHLORIDE / CHOLESTEROL / CREATINE PHOSPHOKINASE / CREATININE / GLUCOSE / LACTATE DEHYDROGENASE / LIPASE / PHOSPHORUS / POTASSIUM / SODIUM / TOTAL BILIRUBIN / TOTAL PROTEIN / URIC ACID: tissue Plasma
[1] = 0 mg/kg, 72 h, dose level Control, time 3 day
[2] = 0 mg/kg, 120 h, dose level Control, time 5 day
[3] = 12 mg/kg, 72 h, dose level Low, time 3 day

## CO[C@H]1/C=C/O[C@@]2(C)Oc3c(C)c(O)c4c(O)c(c(/C=N/N5CCN(C6CCCC6)CC5)c(O)c4c3C2=O)NC(=O)/C(C)=C\C=C\[C@H](C)[C@H](O)[C@@H](C)[C@@H](O)[C@@H](C)[C@H](OC(C)=O)[C@@H]1C [RIFAPENTINE]
[1]
  ABSOLUTE BASOPHIL: 0 CELLS/uL
  ABSOLUTE EOSINOPHIL: 179.67 CELLS/uL
  ABSOLUTE LYMPHOCYTE: 11440.17 CELLS/uL
  ABSOLUTE MONOCYTE: 128.83 CELLS/uL
  ABSOLUTE SEGMENTED NEUTROPHIL: 1051.33 CELLS/uL
  BASOPHIL: 0%
  EOSINOPHIL: 1.33%
  ERYTHROCYTE COUNT: 5.53 x10E6/uL
  HEMATOCRIT: 34.75%
  HEMOGLOBIN: 12.88 G/DL
  LEUKOCYTE COUNT: 12.8 x10E3/uL
  LYMPHOCYTE: 89.5%
  MEAN CORPUSCULAR HEMOGLOBIN: 23.38 pg
  MEAN CORPUSCULAR HEMOGLOBIN CONCENTRATION: 37.12 G/DL
  MEAN CORPUSCULAR VOLUME: 62.88 fL
  MONOCYTE: 1%
  NEUTROPHIL: 8.17%
  NUCLEATED RED BLOOD CELLS: 0 /100WBC
  PLATELET COUNT: 1292 x10E3/uL
  ALANINE AMINOTRANSFERASE: 58.67 u/L
  ALBUMIN: 4.25 G/DL
  ALKALINE PHOSPHATASE: 437.83 u/L
  ASPARTATE AMINOTRANSFERASE: 85.17 u/L
  BLOOD UREA NITROGEN: 14.17 mg/dL
  CARBON DIOXIDE: 28.67 mmol/L
  CHLORIDE: 102.17 MEQ/L
  CHOLESTEROL: 68.5 mg/dL
  CREATINE PHOSPHOKINASE: 271.83 u/L
  CREATININE: 0.2 mg/dL
  GLUCOSE: 156.67 mg/dL
  LACTATE DEHYDROGENASE: 112.33 u/L
  LIPASE: 9.33 u/L
  PHOSPHORUS: 11.1 mg/dL
  POTASSIUM: 6.46 MEQ/L
  SODIUM: 144.37 MEQ/L
  TOTAL BILIRUBIN: 0.23 mg/dL
  TOTAL PROTEIN: 5.8 G/DL
  URIC ACID: 1.55 mg/dL
[2]
  ABSOLUTE BASOPHIL: 0 CELLS/uL
  ABSOLUTE EOSINOPHIL: 87 CELLS/uL
  ABSOLUTE LYMPHOCYTE: 14743.5 CELLS/uL
  ABSOLUTE MONOCYTE: 187 CELLS/uL
  ABSOLUTE SEGMENTED NEUTROPHIL: 1499.17 CELLS/uL
  BASOPHIL: 0%
  EOSINOPHIL: 0.5%
  ERYTHROCYTE COUNT: 5.84 x10E6/uL
  HEMATOCRIT: 36.3%
  HEMOGLOBIN: 13.55 G/DL
  LEUKOCYTE COUNT: 16.52 x10E3/uL
  LYMPHOCYTE: 89.5%
  MEAN CORPUSCULAR HEMOGLOBIN: 23.25 pg
  MEAN CORPUSCULAR HEMOGLOBIN CONCENTRATION: 37.35 G/DL
  MEAN CORPUSCULAR VOLUME: 62.27 fL
  MONOCYTE: 1.17%
  NEUTROPHIL: 8.83%
  NUCLEATED RED BLOOD CELLS: 0.17 /100WBC
  PLATELET COUNT: 1233.5 x10E3/uL
  ALANINE AMINOTRANSFERASE: 62.5 u/L
  ALBUMIN: 4.17 G/DL
  ALKALINE PHOSPHATASE: 464.33 u/L
  ASPARTATE AMINOTRANSFERASE: 99.67 u/L
  BLOOD UREA NITROGEN: 14.33 mg/dL
  CARBON DIOXIDE: 26 mmol/L
  CHLORIDE: 102.33 MEQ/L
  CHOLESTEROL: 60.67 mg/dL
  CREATINE PHOSPHOKINASE: 402.5 u/L
  CREATININE: 0.22 mg/dL
  GLUCOSE: 173.5 mg/dL
  LACTATE DEHYDROGENASE: 518.17 u/L
  LIPASE: 10.83 u/L
  PHOSPHORUS: 11.4 mg/dL
  POTASSIUM: 6.13 MEQ/L
  SODIUM: 142.63 MEQ/L
  TOTAL BILIRUBIN: 0.17 mg/dL
  TOTAL PROTEIN: 6.1 G/DL
  URIC ACID: 1.97 mg/dL
[3]
  ABSOLUTE BASOPHIL: 0 CELLS/uL
  ABSOLUTE EOSINOPHIL: 44.67 CELLS/uL
  ABSOLUTE LYMPHOCYTE: 14914 CELLS/uL
  ABSOLUTE MONOCYTE: 225.33 CELLS/uL
  ABSOLUTE SEGMENTED NEUTROPHIL: 1216 CELLS/uL
  BASOPHIL: 0%
  EOSINOPHIL: 0.33%
  ERYTHROCYTE COUNT: 5.83 x10E6/uL
  HEMATOCRIT: 34.83%
  HEMOGLOBIN: 12.73 G/DL
  LEUKOCYTE COUNT: 16.4 x10E3/uL
  LYMPHOCYTE: 91%
  MEAN CORPUSCULAR HEMOGLOBIN: 21.83 pg
  MEAN CORPUSCULAR HEMOGLOBIN CONCENTRATION: 36.57 G/DL
  MEAN CORPUSCULAR VOLUME: 59.7 fL
  MONOCYTE: 1.33%
  NEUTROPHIL: 7.33%
  NUCLEATED RED BLOOD CELLS: 0 /100WBC
  PLATELET COUNT: 1540.67 x10E3/uL
  ALANINE AMINOTRANSFERASE: 75 u/L
  ALBUMIN: 4.13 G/DL
  ALKALINE PHOSPHATASE: 400.33 u/L
  ASPARTATE AMINOTRANSFERASE: 93.33 u/L
  BLOOD UREA NITROGEN: 15 mg/dL
  CARBON DIOXIDE: 28 mmol/L
  CHLORIDE: 102 MEQ/L
  CHOLESTEROL: 69.33 mg/dL
  CREATINE PHOSPHOKINASE: 485.67 u/L
  CREATININE: 0.15 mg/dL
  GLUCOSE: 166.67 mg/dL
  LACTATE DEHYDROGENASE: 138 u/L
  LIPASE: 10 u/L
  PHOSPHORUS: 11.53 mg/dL
  POTASSIUM: 6.47 MEQ/L
  SODIUM: 141.97 MEQ/L
  TOTAL BILIRUBIN: 0.23 mg/dL
  TOTAL PROTEIN: 5.43 G/DL
  URIC ACID: 1.6 mg/dL
